We go through 27 molecules from EP1247803A2, “Indolinone compounds suitable for modulation of protein kinases” (Sugen, Inc., priority 1996, dated 1998).

The target in assay [1] is PDGF-R (Homo sapiens, UniProt P09619). As to the kind of experiment: PDGF-R ELISA. Format: cell-based. The text has this: A PDGF-R ELISA is described in International Patent Publication No. WO 96/40116, published December 19, 1996 by Tang et al.
Assay [2] concerns the target T1, EGFR (Homo sapiens, UniProt P00533).
T1 construct: Add 7 ug A431 cell lysate per well (EGFR source); endogenous in cells; host or cells: A431
As to the kind of experiment: EGFR ELISA assay (in vitro kinase activity, EGFR captured from A431 cell lysate). Format: biochemical. More on the design: concentration or dose not given beside the values. In outline:
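Receptor autophosphorylation was read by ELISA: anti-phosphotyrosine serum and an HRP-linked secondary with ABTS substrate, absorbance at 410 nm (reference 630 nm). The reaction ran 5 min with 3 µM ATP and 5 mM MnCl2 and was quenched by 20 mM EDTA. Compounds were first incubated 30 min with antibody-captured EGFR from A431 cell lysate.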
A general note: An ELISA detects its analyte on a solid surface through an enzyme-linked reagent.

Assay [3] concerns MET. As to the kind of experiment: MET biochemical kinase assay. More on the design: species or system human; concentration or dose not given beside the values. In a few lines:
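Human MET was captured from cell lysates onto ELISA plates via goat anti-rabbit Fc and rabbit polyclonal antibody to the MET cytoplasmic domain. After washing, test compounds and kinase buffer with ATP and divalent metal ions were added. Phosphotyrosine was detected with HRP-conjugated anti-phosphotyrosine antibody and TMB colorimetric read-out.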

T1 sequence (P00533 25-1210): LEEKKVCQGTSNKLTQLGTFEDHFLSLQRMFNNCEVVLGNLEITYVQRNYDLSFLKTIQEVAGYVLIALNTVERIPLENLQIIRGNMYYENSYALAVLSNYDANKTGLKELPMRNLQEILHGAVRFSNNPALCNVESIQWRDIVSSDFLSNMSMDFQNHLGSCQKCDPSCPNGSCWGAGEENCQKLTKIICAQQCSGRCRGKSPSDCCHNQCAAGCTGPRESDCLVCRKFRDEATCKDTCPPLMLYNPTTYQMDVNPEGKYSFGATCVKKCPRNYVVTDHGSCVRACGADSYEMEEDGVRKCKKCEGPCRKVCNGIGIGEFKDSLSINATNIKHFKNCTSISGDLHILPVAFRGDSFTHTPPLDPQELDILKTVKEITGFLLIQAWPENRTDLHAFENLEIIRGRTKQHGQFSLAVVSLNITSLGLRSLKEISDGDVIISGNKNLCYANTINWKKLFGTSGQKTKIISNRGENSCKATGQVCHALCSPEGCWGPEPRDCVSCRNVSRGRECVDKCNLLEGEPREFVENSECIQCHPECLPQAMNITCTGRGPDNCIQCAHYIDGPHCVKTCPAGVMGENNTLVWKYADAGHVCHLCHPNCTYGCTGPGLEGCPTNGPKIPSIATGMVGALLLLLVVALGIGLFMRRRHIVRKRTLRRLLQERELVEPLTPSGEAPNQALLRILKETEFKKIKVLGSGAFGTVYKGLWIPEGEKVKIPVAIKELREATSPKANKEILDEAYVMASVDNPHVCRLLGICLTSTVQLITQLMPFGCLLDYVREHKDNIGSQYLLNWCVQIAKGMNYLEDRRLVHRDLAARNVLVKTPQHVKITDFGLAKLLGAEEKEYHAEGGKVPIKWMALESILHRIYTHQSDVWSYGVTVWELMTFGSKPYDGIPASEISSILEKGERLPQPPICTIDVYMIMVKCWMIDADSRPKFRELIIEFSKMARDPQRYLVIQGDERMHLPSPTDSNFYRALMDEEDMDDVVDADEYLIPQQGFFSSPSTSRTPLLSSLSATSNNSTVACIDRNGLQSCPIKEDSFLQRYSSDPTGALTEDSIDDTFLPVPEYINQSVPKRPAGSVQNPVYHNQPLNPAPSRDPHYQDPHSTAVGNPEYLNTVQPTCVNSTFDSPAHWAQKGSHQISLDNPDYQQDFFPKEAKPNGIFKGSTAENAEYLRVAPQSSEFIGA
Sequence of PDGF-R (P09619 33-1106, species assumed): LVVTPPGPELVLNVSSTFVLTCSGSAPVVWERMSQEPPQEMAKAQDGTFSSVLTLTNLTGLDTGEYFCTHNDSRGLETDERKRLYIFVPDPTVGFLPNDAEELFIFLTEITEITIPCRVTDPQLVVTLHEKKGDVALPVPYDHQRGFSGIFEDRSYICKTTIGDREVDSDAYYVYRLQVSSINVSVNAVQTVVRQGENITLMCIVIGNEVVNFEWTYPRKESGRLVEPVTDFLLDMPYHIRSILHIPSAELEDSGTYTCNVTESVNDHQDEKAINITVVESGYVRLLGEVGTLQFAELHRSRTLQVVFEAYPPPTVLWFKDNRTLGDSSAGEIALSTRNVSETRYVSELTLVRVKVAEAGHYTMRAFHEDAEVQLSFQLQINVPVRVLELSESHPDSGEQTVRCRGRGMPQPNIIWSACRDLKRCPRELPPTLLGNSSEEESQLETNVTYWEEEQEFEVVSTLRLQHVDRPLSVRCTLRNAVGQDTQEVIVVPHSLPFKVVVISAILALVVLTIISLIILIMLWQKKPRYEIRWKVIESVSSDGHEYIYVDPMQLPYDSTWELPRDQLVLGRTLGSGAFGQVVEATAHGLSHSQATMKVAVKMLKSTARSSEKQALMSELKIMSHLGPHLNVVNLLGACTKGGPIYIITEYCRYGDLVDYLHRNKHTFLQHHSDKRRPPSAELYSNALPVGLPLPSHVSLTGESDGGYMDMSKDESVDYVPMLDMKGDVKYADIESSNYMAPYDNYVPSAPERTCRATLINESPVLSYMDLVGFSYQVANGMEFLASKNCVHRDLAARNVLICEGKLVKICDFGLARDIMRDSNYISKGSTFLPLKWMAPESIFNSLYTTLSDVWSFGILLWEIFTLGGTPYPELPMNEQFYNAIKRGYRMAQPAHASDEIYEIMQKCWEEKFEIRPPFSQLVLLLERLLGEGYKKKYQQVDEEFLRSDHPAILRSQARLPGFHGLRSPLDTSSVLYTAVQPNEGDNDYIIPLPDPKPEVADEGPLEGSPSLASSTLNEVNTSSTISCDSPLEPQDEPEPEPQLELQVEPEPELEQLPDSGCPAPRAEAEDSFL

Regarding `O=C1Nc2ccc(S(=O)(=O)Nc3ccc(C(F)(F)F)cc3)cc2C1=Cc1cc(Cl)ccc1O` [10734/E04], in assay [1], the “PDGF Kinase %Inhibition” value worked out at 26.7%. Besides, in assay [2], the “Biochem EGFR %Inhibition” value is recorded as -7.8%. Besides, in assay [3], the “Met Kinase % Inhibition” value was 88.9%.
In the case of `CCN(CC)c1ccc(C=C2C(=O)Nc3ccc(S(=O)(=O)N4CCOCC4)cc32)c(O)c1` [10734/F05], the “PDGF Kinase %Inhibition” value in assay [1] was -1.1%. Moreover, the “Biochem EGFR %Inhibition” value in assay [2] is -15.6%. The “Met Kinase % Inhibition” value in assay [3] was found to be 73.8%.
The matching figures for `O=C1Nc2ccc(S(=O)(=O)N3CCOCC3)cc2C1=Cc1cc(Cl)ccc1O` [10734/F04]: 25.0%, 3.9% and 76.5%.
The matching figures for `O=C1Nc2ccc(S(=O)(=O)N3CCOCC3)cc2C1=Cc1ccc([N+](=O)[O-])cc1` [10734/F06]: -21.4%, -17.1% and 64.2%.
`O=C1Nc2ccc(CCCl)cc2C1=Cc1ccc([N+](=O)[O-])cc1` [10734/G06]: the “PDGF Kinase %Inhibition” value in assay [1] is recorded as -18.8%. The “Biochem EGFR %Inhibition” value in assay [2] came to 12.5%. Also, in assay [3], the “Met Kinase % Inhibition” value came out at 43.1%.
`O=C1Nc2ccc(CCCl)cc2C1=Cc1cc(Cl)cc(Cl)c1O` [10734/G03]: the “PDGF Kinase %Inhibition” value in assay [1] is on record as -3.8%. For the same molecule, in assay [2], the “Biochem EGFR %Inhibition” value turned out to be 82.8%. Further, the “Met Kinase % Inhibition” value in assay [3] was 93.4%.
Take `CC(C)(C)c1ccc(C=C2C(=O)Nc3ccc(S(=O)(=O)Nc4ccc(C(F)(F)F)cc4)cc32)cc1` [10734/E10]: the “PDGF Kinase %Inhibition” value in assay [1] came out at 29.8%. In addition, the “Biochem EGFR %Inhibition” value in assay [2] was -5.0%. The “Met Kinase % Inhibition” value in assay [3] came out at 27.9%.
The matching figures for `O=C1Nc2ccc(CCCl)cc2C1=Cc1cc(Br)cc(Br)c1O` [10734/G07]: -25.0%, 51.1% and 96.6%.
The like results for `CC(C)(C)c1ccc(C=C2C(=O)Nc3ccc(CCCl)cc32)cc1` [10734/G10] were, in that order, 9.9%, 3.8% and 19.3%.
The like results for `O=C1Nc2ccc(S(=O)(=O)N3CCOCC3)cc2C1=Cc1cc(Cl)cc(Cl)c1O` [10734/F03] were, in that order, -24.1%, 24.8% and 86.8%.
In the case of `O=C1Nc2ccc(S(=O)(=O)N3CCOCC3)cc2C1=Cc1cccc(F)c1O` [10734/F08], the “PDGF Kinase %Inhibition” value in assay [1] is listed as -6.0%. Also, the “Biochem EGFR %Inhibition” value in assay [2] was -23.6%. Besides, in assay [3], the “Met Kinase % Inhibition” value was found to be 66.3%.
The matching figures for `CCOc1cccc(C=C2C(=O)Nc3ccc(CCCl)cc32)c1O` [10734/G02]: 14.8%, 3.4% and 63.6%.
The like results for `O=C1Nc2ccc(S(=O)(=O)Nc3ccc(C(F)(F)F)cc3)cc2C1=Cc1cccc(F)c1O` [10734/E08] were, in that order, 13.0%, 24.2% and 89.1%.
The like results for `O=C1Nc2ccc(CCCl)cc2C1=Cc1ccc(O)c(Br)c1` [10734/G09] were, in that order, -7.7%, 21.4% and 84.7%.
Regarding `O=C1Nc2ccc(CCCl)cc2C1=Cc1cccc(F)c1O` [10734/G08], the “PDGF Kinase %Inhibition” value in assay [1] amounted to 0.2%. In addition, in assay [2], the “Biochem EGFR %Inhibition” value was found to be 33.7%. Besides, the “Met Kinase % Inhibition” value in assay [3] turned out to be 82.2%.
The like results for `CCOc1cccc(C=C2C(=O)Nc3ccc(S(=O)(=O)N4CCOCC4)cc32)c1O` [10734/F02] were, in that order, 10.4%, 0.7% and 55.0%.
The matching figures for `CC(C)(C)c1ccc(C=C2C(=O)Nc3ccc(S(=O)(=O)N4CCOCC4)cc32)cc1` [10734/F10]: 25.8%, -8.3% and 44.8%.
The like results for `CCN(CC)c1ccc(C=C2C(=O)Nc3ccc(CCCl)cc32)c(O)c1` [10734/G05] were, in that order, 2.9%, -0.3% and 57.7%.
In the case of `O=C1Nc2ccc(CCCl)cc2C1=Cc1cc(Cl)ccc1O` [10734/G04], the “PDGF Kinase %Inhibition” value in assay [1] was found to be 16.1%. Moreover, in assay [2], the “Biochem EGFR %Inhibition” value is 62.9%. The “Met Kinase % Inhibition” value in assay [3] is reported as 72.1%.
The like results for `O=C1Nc2ccc(CCCl)cc2C1=Cc1ccc(Br)s1` [10734/G11] were, in that order, -25.4%, 4.1% and 20.2%.
Turning to `O=C1Nc2ccc(S(=O)(=O)N3CCOCC3)cc2C1=Cc1ccc(O)c(Br)c1` [10734/F09], in assay [1], the “PDGF Kinase %Inhibition” value was -17.4%. The “Biochem EGFR %Inhibition” value in assay [2] was determined as 3.1%. Also, in assay [3], the “Met Kinase % Inhibition” value is reported as 93.9%.
As to `O=C1Nc2ccc(S(=O)(=O)Nc3ccc(C(F)(F)F)cc3)cc2C1=Cc1ccc(Br)s1` [10734/E11], the “PDGF Kinase %Inhibition” value in assay [1] came to 16.1%. Moreover, the “Biochem EGFR %Inhibition” value in assay [2] is listed as -8.0%. In addition, in assay [3], the “Met Kinase % Inhibition” value turned out to be 67.1%.
The matching figures for `O=C1Nc2ccc(S(=O)(=O)Nc3ccc(C(F)(F)F)cc3)cc2C1=Cc1ccc([N+](=O)[O-])cc1` [10734/E06]: 13.5%, 6.3% and 50.6%.
For `CCN(CC)c1ccc(C=C2C(=O)Nc3ccc(S(=O)(=O)Nc4ccc(C(F)(F)F)cc4)cc32)c(O)c1` [10734/E05], the “PDGF Kinase %Inhibition” value in assay [1] is given as 17.9%. Besides, the “Biochem EGFR %Inhibition” value in assay [2] was determined as 7.9%. Also, the “Met Kinase % Inhibition” value in assay [3] worked out at 63.6%.
With `O=C1Nc2ccc(S(=O)(=O)Nc3ccc(C(F)(F)F)cc3)cc2C1=Cc1ccc(O)c(Br)c1` [10734/E09], the “PDGF Kinase %Inhibition” value in assay [1] was found to be 1.1%. In assay [2], the “Biochem EGFR %Inhibition” value is given as 73.0%. In assay [3], the “Met Kinase % Inhibition” value was found to be 96.2%.
The like results for `O=C1Nc2ccc(S(=O)(=O)Nc3ccc(C(F)(F)F)cc3)cc2C1=Cc1cc(Br)cc(Br)c1O` [10734/E07] were, in that order, 8.2%, 82.4% and 100.8%.
The like results for `O=C1Nc2ccc(S(=O)(=O)N3CCOCC3)cc2C1=Cc1cc(Br)cc(Br)c1O` [10734/F07] were, in that order, -5.1%, 33.7% and 95.7%.
